These results are taken from article PMC6149995 (2017).

Test [1] deals with FmycT (DNA, G4) TTGAGGGTGGGTAGGGTGGGTAA
The test is described as follows: FRET melting. Conditions: 1 mM K+, 99 mM Li+; 10 mM lithium cacodylate pH 7.2; 1 µM ligand, 0.2 µM DNA; limit stated for all other cases.

Test [2] concerns ds26 (DNA, duplex) CAATCGGATCGAATTCGATCCGATTG
Description: fluorescence titration. The note with it: K+ buffer; insignificant fluorescence reduction, fit unsuccessful; 0.5 µM ligand.

Test [3] concerns 22AG (DNA, G4) AGGGTTAGGGTTAGGGTTAGGG
Description: circular dichroism titration. The note with it: 10 mM lithium cacodylate pH 7.2, 21 °C, 3 µM DNA.

The test system is the same in test [4]. Description: fluorescence titration (ligand quenching, Hill fit). The note with it: 10 mM lithium cacodylate pH 7.2, r.t., 0.5 µM ligand, DNA titrated.
Test [5] deals with Myc2345-Pu22 (DNA, G4) TGAGGGTGGGTAGGGTGGGTAA
Described as above. Conditions: 100 mM K+; 10 mM lithium cacodylate pH 7.2, r.t., 0.5 µM ligand, DNA titrated.

In test [6] the test system is F21T (DNA, G4) GGGTTAGGGTTAGGGTTAGGG
Description: FRET melting. The note with it: 90 mM Li+, 10 mM lithium cacodylate pH 7.2, 1 µM ligand, 0.2 µM DNA, limit stated for all other cases.

[7] abbreviates: 100 mM K+, 0-5 equiv ligand, conversion to antiparallel.
The mark [8] stands for this setting: 100 mM Na+, slightly reduced helicity, antiparallel kept.

SMILES strings stand for the structures.

As usually defined, the ΔTm is the change in melting temperature against a reference sample. As for `c1ccc(-c2cnc(-c3cccc(-c4cnc(-c5cccc(-c6cnc(-c7ccccn7)o6)n5)o4)n3)o2)nc1`, in test [1], the shift in melting temperature (ΔTm) was less than 3 °C. For the same molecule, the binding result is on record as “no” in test [2], “yes” in test [3] (setting [7]) and “yes” in test [3] (setting [8]). Besides, the KD result is recorded as “(5.0 ± 0.3) × 10^−7 M^−1” in test [4] (100 mM K+), “(0.6 ± 0.0) × 10^−7 M^−1” in test [4] (100 mM Na+) and “(1.9 ± 0.1) × 10^−7 M^−1” in test [5].

On to `c1ccc(-c2cnc(-c3cccc(-c4cnc(-c5ccccn5)o4)n3)o2)nc1`, for which the ΔTm in test [6] (10 mM K+), in test [6] (10 mM Na+) and in test [1] was less than 3 °C each time. The binding result in test [2] was “no”; in test [3] (100 mM K+, needs more equivalents to rearrange), “yes”; in test [3] (setting [8]), “yes”. For the same molecule, the KD entry in test [4] (100 mM K+) was “(3.2 ± 0.1) × 10^−7 M^−1”; in test [4] (100 mM Na+), “(7.2 ± 0.8) × 10^−7 M^−1”; in test [5] it was “(4.8 ± 0.3) × 10^−7 M^−1”.

Take `c1ccc(-c2cnc(-c3cccc(-c4cnc(-c5cccc(-c6cnco6)n5)o4)n3)o2)nc1`: the shift in melting temperature (ΔTm) in test [1] was less than 3 °C. Besides, the binding entry in test [2] was “no”; in test [3] (setting [7]) it was “yes”; in test [3] (setting [8]) it was “yes”. For the same molecule, the values for the KD result in test [4] (100 mM K+), in test [4] (100 mM Na+) and in test [5] were “(2.2 ± 0.1) × 10^−7 M^−1”, “(0.8 ± 0.1) × 10^−7 M^−1” and “(1.7 ± 0.1) × 10^−7 M^−1”, respectively.
